“And” between values parts separate entries of the source, which are not always exact repeats. Identical values can stand only once. Like-named read-outs stand apart in the source and are kept apart here.
Tests used:
UCP1 [1] = target: T1, UCP1 (Homo sapiens, UniProt P25874); assay: Differential scanning fluorimetry (nanoDSF) thermal stability shift assay; assay type: binding
T1 construct: His8 (N, cleaved yes); Factor Xa protease cleavage site (N, cleaved yes); made in house; host or cells: Saccharomyces cerevisiae strain W303.1B
T1 sequence (P25874 1-307): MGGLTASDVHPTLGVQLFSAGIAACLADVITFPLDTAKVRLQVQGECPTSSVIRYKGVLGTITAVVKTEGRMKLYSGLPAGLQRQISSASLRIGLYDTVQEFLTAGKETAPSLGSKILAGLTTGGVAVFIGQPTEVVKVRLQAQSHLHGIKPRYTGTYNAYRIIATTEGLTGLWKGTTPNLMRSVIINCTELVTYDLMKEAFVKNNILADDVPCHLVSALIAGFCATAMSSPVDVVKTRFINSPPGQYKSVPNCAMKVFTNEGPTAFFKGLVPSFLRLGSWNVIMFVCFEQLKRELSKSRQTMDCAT

human OGC (SLC25A11) = target: T2, human OGC (SLC25A11) (Homo sapiens, UniProt Q02978); assay: as above; assay type: binding; conditions: 1 mM nucleotide, pH 6.0, single repeats (source data Fig. 4A)
T2 construct: His8 (N, cleaved yes); Factor Xa protease cleavage site (N, cleaved yes); made in house; host or cells: Saccharomyces cerevisiae strain W303.1B
T2 sequence (Q02978 1-314): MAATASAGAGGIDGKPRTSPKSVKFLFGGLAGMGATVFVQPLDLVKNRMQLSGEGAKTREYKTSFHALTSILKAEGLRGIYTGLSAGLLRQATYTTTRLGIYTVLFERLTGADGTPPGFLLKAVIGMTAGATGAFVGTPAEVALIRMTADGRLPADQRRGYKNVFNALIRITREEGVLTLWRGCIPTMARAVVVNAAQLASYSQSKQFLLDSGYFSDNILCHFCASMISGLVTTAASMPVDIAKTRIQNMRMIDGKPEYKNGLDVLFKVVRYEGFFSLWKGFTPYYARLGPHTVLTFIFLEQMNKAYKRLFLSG
Text: UCP1 is phylogenetically related to mitochondrial dicarboxylate carriers, gaining thermogenic properties as a later evolutionary development (Hughes et al, [2009]; Robinson et al, [2008]). The mitochondrial dicarboxylate carrier (DIC, SLC25A10) and oxoglutarate carrier (OGC, SLC25A11) are most closely related to UCP1 (Gaudry et al, [2019]; Hughes et al, [2009]) and share many residues involved in nucleotide binding in UCP1, such as the arginine triplet at the contact points, R92 and Q85 (Jones et al, [2024]). Given the similarity of the central cavity of UCP1, OGC and DIC, we tested whether the dicarboxylate carriers have the ability to bind nucleotides. For this purpose, we purified human DIC and OGC, and tested whether nucleotides were able to generate a thermostability shift, as observed for their physiological substrates (Pyrihová et al, [2024]). However, all tested nucleotides caused a negligible shift with both DIC or OGC at all pH values tested between 6.0 and 8.0 (Fig. 4A; Appendix Fig. S5). Thus, despite having many residues in common (Fig. 4B–D), UCP1 has evolved to have a few specific residues that allow high-affinity binding of nucleotides without a strong selection for nucleobase.
Differential scanning fluorimetry (nanoDSF) (Alexandrov et al, [2008]) was carried out with 2 µg UCP1, DIC or OGC protein (100 mM MES/HEPES, pH range 6.0–8.0, 25 mM NaCl, 1 mM TCEP, 0.01% lauryl maltose neopentyl glycol and 0.01 mg/mL tetraoleoyl cardiolipin) and, when required, 1 mM nucleotide, as indicated. The proteins have the following number of tryptophans: UCP1 (two); OGC (two); DIC (one). The samples were loaded into nanoDSF-grade standard glass capillaries. The temperature was increased by […] every minute from 25 to 95 °C, the intrinsic fluorescence was measured in a Prometheus NT.48 nanoDSF device, and the apparent Tm was calculated with the PR.ThermControl software (NanoTemper Technologies).

UCP1 [2] = target: T1, UCP1; assay: Isothermal titration calorimetry of nucleotide binding; design: isotherm data point (enthalpy change per injection): unit not given here; conditions: for isotherm data point (enthalpy change per injection): representative isotherm;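 as to all read-outs here: purified human UCP1 in cacodylate buffer with lauryl maltose neopentyl glycol and cardiolipin, titrated with nucleotides, isotherms fitted by one-site model yielding ΔH, Kd and stoichiometry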
UCP1 [3] = target: T1, UCP1; assay: Liposome reconstitution and proton conductance assay (pyranine fluorescence); assay type: biochemical; conditions: UCP1 proteoliposomes, 200 µM oleic acid + 500 µM nucleotide, 2.5 µM valinomycin; single reconstitutions

## Cc1cn([C@H]2C[C@H](O)[C@@H](COP(=O)(O)OP(=O)(O)OP(=O)(O)O)O2)c(=O)[nH]c1=O [dTTP, thymidine triphosphate]
UCP1 [1]; 1 mM nucleotide, pH 6.0
  difference in ΔTm versus GTP: 2.7 °C
UCP1 [1]; 1 mM nucleotide, pH 6.0, detergent-solubilised UCP1, mean of three biological repeats
  temperature shift (ΔTm): 18.9 °C
UCP1 [1]; pH 6, read-out: thermal shift (ΔTm), 1 mM nucleotide, pH 6.0, single repeats (source data Fig. 1D)
  ΔTm at 1000 µM: 19 °C
UCP1 [1]; pH 6.5, read-out: thermal shift (ΔTm), 1 mM nucleotide, pH 6.5, single repeats (source data Fig. 1D)
  ΔTm at 1000 µM: 14.8 °C
UCP1 [1]; pH 7, read-out: thermal shift (ΔTm), 1 mM nucleotide, pH 7.0, single repeats (source data Fig. 1D)
  ΔTm at 1000 µM: 10.1 °C
UCP1 [1]; pH 7.5, read-out: thermal shift (ΔTm), 1 mM nucleotide, pH 7.5, single repeats (source data Fig. 1D)
  ΔTm at 1000 µM: 4 °C
Human OGC (SLC25A11)
  change in apparent melting temperature (ΔTm) of hOGC: 0.5 and 0.3
UCP1 [2]; ITC
  binding affinity to UCP1 (in words): highest binding affinities
UCP1 [2]; ITC, pH 6.0, 20 °C, mean ± standard deviation of three biological repeats (Fig. 2A-E)
  Kd: 1.13 ± 0.09 µM
UCP1 [2]; ITC, single biological repeats (source data Fig. 2F)
  Kd: 1.24 µM and 1.09 µM and 1.07 µM
UCP1 [2]; Molar ratio (Nucleotide/UCP) 0.120417, pH 6.0, 20 °C
  isotherm data point (enthalpy change per injection): -22.0628
UCP1 [2]; Molar ratio (Nucleotide/UCP) 0.181226, pH 6.0, 20 °C
  isotherm data point (enthalpy change per injection): -22.1545
UCP1 [2]; Molar ratio (Nucleotide/UCP) 0.242439, pH 6.0, 20 °C
  isotherm data point (enthalpy change per injection): -21.2571
UCP1 [2]; Molar ratio (Nucleotide/UCP) 0.304059, pH 6.0, 20 °C
  isotherm data point (enthalpy change per injection): -20.8684
UCP1 [2]; Molar ratio (Nucleotide/UCP) 0.366087, pH 6.0, 20 °C
  isotherm data point (enthalpy change per injection): -22.682
UCP1 [2]; Molar ratio (Nucleotide/UCP) 0.428528, pH 6.0, 20 °C
  isotherm data point (enthalpy change per injection): -21.6485
UCP1 [2]; Molar ratio (Nucleotide/UCP) 0.491383, pH 6.0, 20 °C
  isotherm data point (enthalpy change per injection): -18.3951
UCP1 [2]; Molar ratio (Nucleotide/UCP) 0.554656, pH 6.0, 20 °C
  isotherm data point (enthalpy change per injection): -20.6625
UCP1 [2]; Molar ratio (Nucleotide/UCP) 0.618348, pH 6.0, 20 °C
  isotherm data point (enthalpy change per injection): -18.8854
UCP1 [2]; Molar ratio (Nucleotide/UCP) 0.682464, pH 6.0, 20 °C
  isotherm data point (enthalpy change per injection): -18.4581
UCP1 [2]; Molar ratio (Nucleotide/UCP) 0.747006, pH 6.0, 20 °C
  isotherm data point (enthalpy change per injection): -16.8767
UCP1 [2]; Molar ratio (Nucleotide/UCP) 0.811976, pH 6.0, 20 °C
  isotherm data point (enthalpy change per injection): -15.5439
UCP1 [2]; Molar ratio (Nucleotide/UCP) 0.877378, pH 6.0, 20 °C
  isotherm data point (enthalpy change per injection): -14.5814
UCP1 [2]; Molar ratio (Nucleotide/UCP) 0.943214, pH 6.0, 20 °C
  isotherm data point (enthalpy change per injection): -11.542
UCP1 [2]; Molar ratio (Nucleotide/UCP) 1.00949, pH 6.0, 20 °C
  isotherm data point (enthalpy change per injection): -9.131
UCP1 [2]; Molar ratio (Nucleotide/UCP) 1.0762, pH 6.0, 20 °C
  isotherm data point (enthalpy change per injection): -6.9461
UCP1 [2]; Molar ratio (Nucleotide/UCP) 1.14336, pH 6.0, 20 °C
  isotherm data point (enthalpy change per injection): -4.409
UCP1 [2]; Molar ratio (Nucleotide/UCP) 1.21096, pH 6.0, 20 °C
  isotherm data point (enthalpy change per injection): -2.755
UCP1 [2]; Molar ratio (Nucleotide/UCP) 1.27901, pH 6.0, 20 °C
  isotherm data point (enthalpy change per injection): -1.022
UCP1 [2]; Molar ratio (Nucleotide/UCP) 1.34751, pH 6.0, 20 °C
  isotherm data point (enthalpy change per injection): -0.7829
UCP1 [2]; Molar ratio (Nucleotide/UCP) 1.41647, pH 6.0, 20 °C
  isotherm data point (enthalpy change per injection): -1.325
UCP1 [2]; Molar ratio (Nucleotide/UCP) 1.48589, pH 6.0, 20 °C
  isotherm data point (enthalpy change per injection): -0.8361
UCP1 [2]; Molar ratio (Nucleotide/UCP) 1.55577, pH 6.0, 20 °C
  isotherm data point (enthalpy change per injection): 0.501
UCP1 [2]; Molar ratio (Nucleotide/UCP) 1.62611, pH 6.0, 20 °C
  isotherm data point (enthalpy change per injection): 0.6153
UCP1 [2]; Molar ratio (Nucleotide/UCP) 1.69692, pH 6.0, 20 °C
  isotherm data point (enthalpy change per injection): 0.02513
UCP1 [2]; Molar ratio (Nucleotide/UCP) 1.76819, pH 6.0, 20 °C
  isotherm data point (enthalpy change per injection): -0.2521
UCP1 [2]; Molar ratio (Nucleotide/UCP) 1.83995, pH 6.0, 20 °C
  isotherm data point (enthalpy change per injection): 0.8236
UCP1 [2]; Molar ratio (Nucleotide/UCP) 1.91217, pH 6.0, 20 °C
  isotherm data point (enthalpy change per injection): 0.03383
UCP1 [2]; Molar ratio (Nucleotide/UCP) 1.98488, pH 6.0, 20 °C
  isotherm data point (enthalpy change per injection): 0.2054
UCP1 [3]
  Proton influx rate: 84.11 nmol H+/min and 42.34 nmol H+/min and 68.93 nmol H+/min

From article PMC12000319, “Proton conductance by human uncoupling protein 1 is inhibited by purine and pyrimidine nucleotides” (The EMBO Journal, 2025)
